In patent US6794386B2, “β-amino acid compounds as integrin antagonists” (Bayer Aktiengesellschaft, priority 2000, dated 2004):
Read-outs that look alike come from different tables or passages of the source.

Target: T1, VLA-4 (Homo sapiens, UniProt P05556+P13612)
T1 construct: host or cells: Jurkat clone E6-1
Experiment: Adhesion of Jurkat cells to immobilized VCAM-1 (domains 1-3)
Assay type: cell-based
Design: scale not given here
Conditions: adhesion of CFSE-labeled Jurkat cells to recombinant human VCAM-1 (domains 1-3) coated plates, compounds as yielded by solid phase synthesis, purity about 40-90%
Procedure: In Vitro Assay: Adhesion of Jurkat Cells to Immobilized VCAM-1 (Domains 1-3).
Preparation of Fluorescence Labeled Jurkat Cells:
Jurkat cells (American Type Culture Collection, Clone E6-1, ATCC TIB-152) were cultured in RPMI 1640 medium (Nikken Bio Medical Laboratory, CM1101) supplemented with 10% fetal bovine serum (Hyclone, A-1119-L), 100 U/ml penicilin (Gibco BRL, 15140-122) and 100 μg/ml streptomycin (Gibco BRL, 15140-122) in a humidified incubator at 37° C. with 5% CO2.
Jurkat cells were incubated with phosphate balanced solution (PBS, Nissui, 05913) containing 25 μM of 5(-and-6)-carboxyfluorescein diacetate, succinimidyle ester (CFSE, Dojindo Laboratories, 345-06441) for 20 min at room temperature while gently swirling every 5 min. After centrifugation at 1000 rpm for 5 min, the cell pellet was resuspended with adhesion assay buffer at a cell density of 2×10^6 cells/ml. The adhesion assay buffer was composed of 24 mM Tris-HCl (pH 7.4), 137 mM NaCl, 27 mM KCl, 4 mM glucose, 0.1% bovine serum albumin (BSA, Sigma, A9647) and 2 mM MnCl2.
Preparation of VCAM-1 (Extracellular Domains 1-3):
Complementary DNA (cDNA) encoding 7-domain form of VCAM-1 (GenBank accession #M60335) was obtained using Rapid-Screen™ cDNA library panels (OriGene Technologies, Inc) at Takara Gene Analysis Center (Shiga, Japan). The primers used were 5′-CCAAGGCAGAGTACGCAAAC-3′ (sence) and 5′-TGGCAGGTATTATTAAGGAG-3′ (antisense). PCR amplification of the 3-domain VCAM-1 cDNA was perform using Pfu DNA polymerase (Stratagene) with the following sets of primers: (U-VCAMd1-3) 5′-CCATATGGTACCTGATCAATTTAAAATCGAGACCACCCCAGAA-3′; (L-VCAMd1-3) 5′-CCATATAGCAATCCTAGGTCCAGGGGAGATCTCAACAGTAAA-3′. PCR cycle was 94° C. for 45 sec, 55° C. for 45 sec, 72° C. for 2 min, repeating 15 cycles. After the purification of the PCR product, the fragment was digested with KpnI-AvrII. The digested fragment was ligated into pBluescript IISK(−) (Strategene), which was linealized by digesting with KpnI-XhoI. The ligation was followed by transformation to a Dam/Dcm methylase-free E. coli strain SCS110 (Strategene) to create the donor plasmid pH7. To direct VCAM-1 molecule into the insect cell secretory pathway, the VCAM-1 coding sequence was fused to signal peptide sequence of honeybee melittin. The resulting melittin-VCAM fusion was placed in correct orientation to the baculoviris polyhedrin promoter. Baculovirus transfer vector containing first 3-domain form VCAM-1 (pH10) was constructed by ligation of 0.9 kb fragment from AvrII/Klenow/BclI digests of pH7 into SalI/Klenow/BamHI digests of pMelBacB (Invitrogen). Recombinant baculovirus was generated by using Bac-N-Blue™ Transfection kit (Invitrogen) according to the manufacture's instruction. The recombinant virus was amplified by infection to High-Five™ insect cells for 5-6 days, and virus titer was determined by plaque assay.
High-Five™ insect cells were pelleted in a 225 ml conical tube by centrifugation at 1000 rpm for 5 min After discarding the supernatant, the pellet was resuspended in 1.5×10^9 pfu (MOI=5) of high-titer virus solution, followed by incubation for 1.5 hours at room temperature. The cells were pelleted again and washed once in fresh Express Five™ serum free medium. The cells were pelleted again and finally, resuspended in 200 ml of fresh Express Five™ medium, transferred to a 1,000 ml shaker flask, and incubated in a shaker at 27° C., 130 rpm, for 48 hours before the culture supernatant was collected. The purification of 3-domain form of VCAM-1 from the culture supernatant was performed by one-step anion exchange chromatography. Protein concentration was determined by using Coomassie protein assay reagent (Pierce) according to the manufacture's instruction.
Preparation of Microtiter Plates:
Recombinant human VCAM-1 (extracellular domains 1-3) was dissolved at 0.5 μg/ml in PBS. […]

T1 sequence (P13612 34-1032): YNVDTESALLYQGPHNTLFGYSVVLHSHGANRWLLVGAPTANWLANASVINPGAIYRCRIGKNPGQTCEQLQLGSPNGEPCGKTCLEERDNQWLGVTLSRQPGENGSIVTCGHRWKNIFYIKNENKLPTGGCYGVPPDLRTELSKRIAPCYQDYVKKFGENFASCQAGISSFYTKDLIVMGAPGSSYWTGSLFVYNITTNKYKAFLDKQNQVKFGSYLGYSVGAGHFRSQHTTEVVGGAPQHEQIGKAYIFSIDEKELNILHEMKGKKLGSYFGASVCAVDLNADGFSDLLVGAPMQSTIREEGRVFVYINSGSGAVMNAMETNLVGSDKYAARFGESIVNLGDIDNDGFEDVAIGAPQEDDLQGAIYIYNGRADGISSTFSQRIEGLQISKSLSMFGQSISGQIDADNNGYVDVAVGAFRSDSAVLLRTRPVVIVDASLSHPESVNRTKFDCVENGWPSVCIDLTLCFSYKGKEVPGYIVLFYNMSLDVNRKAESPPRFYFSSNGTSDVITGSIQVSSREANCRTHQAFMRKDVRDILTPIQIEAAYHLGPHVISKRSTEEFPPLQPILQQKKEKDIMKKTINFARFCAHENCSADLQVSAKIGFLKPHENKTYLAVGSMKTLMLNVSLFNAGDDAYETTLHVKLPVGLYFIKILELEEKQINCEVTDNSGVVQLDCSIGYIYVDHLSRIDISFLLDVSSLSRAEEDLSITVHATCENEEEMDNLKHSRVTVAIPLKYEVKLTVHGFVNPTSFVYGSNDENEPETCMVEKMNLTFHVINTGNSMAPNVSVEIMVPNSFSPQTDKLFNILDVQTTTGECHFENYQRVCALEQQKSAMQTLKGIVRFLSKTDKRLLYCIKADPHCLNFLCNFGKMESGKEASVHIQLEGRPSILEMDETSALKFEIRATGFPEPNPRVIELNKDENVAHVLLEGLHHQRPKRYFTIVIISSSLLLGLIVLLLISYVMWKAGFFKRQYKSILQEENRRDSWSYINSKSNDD
T1 sequence (P05556 21-798): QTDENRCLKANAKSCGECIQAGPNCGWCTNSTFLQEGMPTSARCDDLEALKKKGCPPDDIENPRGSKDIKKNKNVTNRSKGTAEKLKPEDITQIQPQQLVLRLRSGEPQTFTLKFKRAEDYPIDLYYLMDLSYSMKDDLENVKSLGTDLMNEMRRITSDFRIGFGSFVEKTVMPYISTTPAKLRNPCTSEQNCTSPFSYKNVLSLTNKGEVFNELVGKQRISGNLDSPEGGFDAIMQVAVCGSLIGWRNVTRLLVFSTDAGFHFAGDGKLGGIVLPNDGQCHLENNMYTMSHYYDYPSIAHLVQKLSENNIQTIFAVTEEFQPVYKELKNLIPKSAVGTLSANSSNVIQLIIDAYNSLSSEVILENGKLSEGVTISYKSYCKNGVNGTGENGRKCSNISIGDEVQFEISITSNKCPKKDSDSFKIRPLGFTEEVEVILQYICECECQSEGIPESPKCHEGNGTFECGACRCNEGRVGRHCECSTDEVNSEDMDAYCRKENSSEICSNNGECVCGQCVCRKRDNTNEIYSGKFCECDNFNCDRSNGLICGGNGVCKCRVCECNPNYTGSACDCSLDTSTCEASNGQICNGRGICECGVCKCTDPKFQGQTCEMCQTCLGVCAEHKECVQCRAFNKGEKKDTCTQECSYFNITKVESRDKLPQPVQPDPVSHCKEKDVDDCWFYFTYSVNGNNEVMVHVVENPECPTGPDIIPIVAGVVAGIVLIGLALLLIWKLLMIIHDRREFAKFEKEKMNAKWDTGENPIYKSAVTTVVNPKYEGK

| Compound | IC50 (read-out: IC50) | IC50 |
| --- | --- | --- |
| COCCN(C)c1ncnc(N2CCCC(C(=O)N[C@@H](Cc3ccc(NC(=O)N4CCN(c5ccccc5)CC4)cc3)C(=O)O)C2)c1F (stereo partly drawn) [Example 5.46] | 500 to 2000 nM | – |
| COc1ccccc1C(=O)N1CCCC(C(=O)N[C@@H](Cc2ccc(-c3cc(Cl)ccc3Cl)cc2)C(=O)O)C1 (stereo partly drawn) [Example 1.1, (2S)-3-(2′,5′-dichloro[1,1′-biphenyl]-4-yl)-2-({[1-(2-methoxybenzoyl)-3-piperidinyl]carbonyl}amino)propanoic acid] | ≤ 500 nM | – |
| CN1CCN(c2ncnc(N3CCCC(C(=O)N[C@@H](Cc4ccc(NC(=O)N5CCc6ccccc6C5)cc4)C(=O)O)C3)c2F)CC1 (stereo partly drawn) [Example 5.40] | 500 to 2000 nM | – |
| COc1ccc(CCNc2ncnc(N3CCCC(C(=O)N[C@@H](Cc4ccc(NC(=O)N5CCN(C)CC5)cc4)C(=O)O)C3)c2F)cc1 (stereo partly drawn) [Example 5.7] | 500 to 2000 nM | – |
| Cc1ccccc1-c1ccc(C[C@H](NC(=O)C2CCCN(c3ncnc(NC4CCCCC4)c3F)C2)C(=O)O)cc1 (stereo partly drawn) [Example 2.25] | – | C-D |
| Cc1ccc(S(=O)(=O)N2CCCC(C(=O)N[C@@H](Cc3ccc(NC(=O)N4CCOCC4)cc3)C(=O)O)C2)cc1 (stereo partly drawn) [Example 4.43] | ≤ 500 nM | – |
| COc1ccc(-c2ccc(C[C@H](NC(=O)C3CCCN(S(=O)(=O)c4ccc5ccccc5c4)C3)C(=O)O)cc2)cc1 (stereo partly drawn) [Example 1.78] | – | C-D |
| COc1ccc(Cl)cc1S(=O)(=O)N1CCCC(C(=O)N[C@@H](Cc2ccc(-c3ccccc3C)cc2)C(=O)O)C1 (stereo partly drawn) [Example 1.90] | – | C-D |
| CC1(C)C2CCC1(CS(=O)(=O)N1CCCC(C(=O)N[C@@H](Cc3ccc(-c4ccc(Cl)cc4Cl)cc3)C(=O)O)C1)C(=O)C2 (stereo partly drawn) [Example 1.93] | – | C-D |
| O=C(N[C@@H](Cc1ccc(NC(=O)N2CCN(c3ccccc3)CC2)cc1)C(=O)O)C1CCCN(S(=O)(=O)Cc2ccccc2)C1 (stereo partly drawn) [Example 4.47] | 500 to 2000 nM | – |
| Cc1ccc(-c2ccc(C[C@H](NC(=O)C3CCCN(S(=O)(=O)CC45CCC(CC4=O)C5(C)C)C3)C(=O)O)cc2)cc1 (stereo partly drawn) [Example 1.65] | – | C-D |
| O=C(N[C@@H](Cc1ccc(NC(=O)N2CCc3ccccc3C2)cc1)C(=O)O)C1CCCN(C(=O)Cc2cccs2)C1 (stereo partly drawn) [Example 4.9] | ≤ 500 nM | – |
| COc1ccccc1C(=O)N1CCCC(C(=O)N[C@@H](Cc2ccc(NC(=O)N3CCOCC3)cc2)C(=O)O)C1 (stereo partly drawn) [Example 4.22] | ≤ 500 nM | – |
| O=C(N[C@@H](Cc1ccc(-c2ccc(Cl)c(Cl)c2)cc1)C(=O)O)C1CCCN(c2ncnc(N3CCNCC3)c2F)C1 (stereo partly drawn) [Example 2.46] | – | C-D |
| Cc1ccccc1-c1ccc(C[C@H](NC(=O)C2CCCN(S(=O)(=O)c3ccc4ccccc4c3)C2)C(=O)O)cc1 (stereo partly drawn) [Example 1.87] | 500 to 2000 nM | – |
| O=C(N[C@@H](Cc1ccc(-c2cc(Cl)ccc2Cl)cc1)C(=O)O)C1CCCN(c2ncnc(NC3CCCCC3)c2F)C1 (stereo partly drawn) [Example 2.34] | 2000 to 10000 nM | – |
| COc1ccc(Cl)cc1S(=O)(=O)N1CCCC(C(=O)N[C@@H](Cc2ccc(-c3cc(Cl)ccc3Cl)cc2)C(=O)O)C1 (stereo partly drawn) [Example 1.110] | – | C-D |
| O=C(N[C@@H](Cc1ccc(-c2ccccc2)cc1)C(=O)O)C1CCCN(S(=O)(=O)c2ccc3ccccc3c2)C1 (stereo partly drawn) [Example 1.58] | – | C-D |
| COc1ccccc1C(=O)N1CCCC(C(=O)N[C@@H](Cc2ccc(-c3ccccc3)cc2)C(=O)O)C1 (stereo partly drawn) [Example 1.14] | – | C-D |
| CC1(C)C2CCC1(CS(=O)(=O)N1CCCC(C(=O)N[C@@H](Cc3ccc(-c4cc(Cl)ccc4Cl)cc3)C(=O)O)C1)C(=O)C2 (stereo partly drawn) [Example 1.103] | – | C-D |
| Cc1ccccc1-c1ccc(C[C@H](NC(=O)C2CCCN(S(=O)(=O)Cc3ccccc3)C2)C(=O)O)cc1 (stereo partly drawn) [Example 1.91] | – | C-D |

| Compound | IC50 (read-out: IC50) | IC50 |
| --- | --- | --- |
| CN(c1ncnc(N2CCCC(C(=O)N[C@@H](Cc3ccc(NC(=O)N4CCN(c5ccccc5)CC4)cc3)C(=O)O)C2)c1F)C1CCCCC1 (stereo partly drawn) [Example 5.43] | 500 to 2000 nM | – |
| Cc1ccc(C(=O)N2CCCC(C(=O)N[C@@H](Cc3ccc(-c4cc(Cl)ccc4Cl)cc3)C(=O)O)C2)cc1 (stereo partly drawn) [Example 1.51] | – | C-D |
| Cc1ccc(-c2ccc(C[C@H](NC(=O)C3CCCN(C(=O)Oc4c(C)cc(C)cc4C)C3)C(=O)O)cc2)cc1 (stereo partly drawn) [Example 1.23] | – | C-D |
| Cc1ccc(-c2ccc(C[C@H](NC(=O)C3CCCN(C(=O)c4ccc5c(c4)OCO5)C3)C(=O)O)cc2)cc1 (stereo partly drawn) [Example 1.20] | – | C-D |
| COc1ccccc1C(=O)N1CCCC(C(=O)N[C@@H](Cc2ccc(NC(=O)NC3CCN(Cc4ccccc4)CC3)cc2)C(=O)O)C1 (stereo partly drawn) [Example 4.24] | 500 to 2000 nM | – |
| COc1ccc(-c2ccc(C[C@H](NC(=O)C3CCCN(c4ncnc(NCCN5CCCC5)c4F)C3)C(=O)O)cc2)cc1 (stereo partly drawn) [Example 2.22] | – | C-D |
| CN1CCN(C(=O)Nc2ccc(C[C@H](NC(=O)C3CCCN(c4ncnc(NCC5CCNCC5)c4F)C3)C(=O)O)cc2)CC1 (stereo partly drawn) [Example 5.32] | 500 to 2000 nM | – |
| O=C(N[C@@H](Cc1ccc(-c2ccc(Cl)c(Cl)c2)cc1)C(=O)O)C1CCCN(c2ncnc(NCCN3CCCC3)c2F)C1 (stereo partly drawn) [Example 2.49] | – | C-D |
| Cc1ccc(-c2ccc(C[C@H](NC(=O)C3CCCN(c4ncnc(N5CCCCC5)c4F)C3)C(=O)O)cc2)cc1 (stereo partly drawn) [Example 2.6] | – | C-D |
| COC(=O)c1ccccc1S(=O)(=O)N1CCCC(C(=O)N[C@@H](Cc2ccc(-c3ccc(OC)cc3)cc2)C(=O)O)C1 (stereo partly drawn) [Example 1.77] | – | C-D |
| O=C(N[C@@H](Cc1ccc(-c2ccc(Cl)cc2Cl)cc1)C(=O)O)C1CCCN(C(=O)c2cccc(Cl)c2)C1 (stereo partly drawn) [Example 1.41] | – | C-D |
| Cc1ccc(S(=O)(=O)N2CCCC(C(=O)N[C@@H](Cc3ccc(-c4cc(Cl)ccc4Cl)cc3)C(=O)O)C2)cc1 (stereo partly drawn) [Example 1.104] | ≤ 500 nM | – |
| COc1ccc(-c2ccc(C[C@H](NC(=O)C3CCCN(c4ncnc(NC5Cc6ccccc6C5)c4F)C3)C(=O)O)cc2)cc1 (stereo partly drawn) [Example 2.21] | – | C-D |
| Cc1ccc(S(=O)(=O)N2CCCC(C(=O)N[C@@H](Cc3ccc(-c4ccc(Cl)cc4Cl)cc3)C(=O)O)C2)cc1 (stereo partly drawn) [Example 1.94] | – | C-D |
| Cc1cc(C)c(OC(=O)N2CCCC(C(=O)N[C@@H](Cc3ccc(-c4ccc(Cl)cc4Cl)cc3)C(=O)O)C2)c(C)c1 (stereo partly drawn) [Example 1.47] | – | C-D |
| Cc1ccc(-c2ccc(C[C@H](NC(=O)C3CCCN(S(=O)(=O)c4ccccc4C(F)(F)F)C3)C(=O)O)cc2)cc1 (stereo partly drawn) [Example 1.71] | – | C-D |
| COc1ccc(-c2ccc(C[C@H](NC(=O)C3CCCN(C(=O)Oc4c(C)cc(C)cc4C)C3)C(=O)O)cc2)cc1 (stereo partly drawn) [Example 1.28] | – | C-D |
| Nc1ncnc(N2CCCC(C(=O)N[C@@H](Cc3ccc(NC(=O)N4CCN(c5ccccc5)CC4)cc3)C(=O)O)C2)c1F (stereo partly drawn) [Example 5.42] | ≤ 500 nM | – |
| Cc1ccc(-c2ccc(C[C@H](NC(=O)C3CCCN(S(=O)(=O)c4ccc5ccccc5c4)C3)C(=O)O)cc2)cc1 (stereo partly drawn) [Example 1.68] | – | C-D |
| CCCCN(C)c1ncnc(N2CCCC(C(=O)N[C@@H](Cc3ccc(-c4ccc(OC)cc4)cc3)C(=O)O)C2)c1F (stereo partly drawn) [Example 2.23] | – | C-D |
| CN1CCN(C(=O)Nc2ccc(C[C@H](NC(=O)C3CCCN(c4ncnc(NCc5ccccc5)c4F)C3)C(=O)O)cc2)CC1 (stereo partly drawn) [Example 5.11] | 500 to 2000 nM | – |
